In PubChem BioAssay AID1259407 (Chemical Carcinogenesis Research Information System (CCRIS), 2018):
Active and inactive are the calls of the source. No rule for the calls is given here.

Test system: CCRIS mutagenicity, Ames/micronucleus/aberration tests
Assay: CCRIS mutagenicity studies
[1] = Test System: AMES SALMONELLA TYPHIMURIUM, Strain/Indicator: TA97, Metabolic Activation: NONE, Method: PREINCUBATION
[2] = Test System: AMES SALMONELLA TYPHIMURIUM, Strain/Indicator: TA98, Metabolic Activation: NONE, Method: PREINCUBATION
[3] = Test System: AMES SALMONELLA TYPHIMURIUM, Strain/Indicator: TA100, Metabolic Activation: NONE, Method: PREINCUBATION
[4] = Test System: AMES SALMONELLA TYPHIMURIUM, Strain/Indicator: TA1535, Metabolic Activation: NONE, Method: PREINCUBATION
[5] = Test System: AMES SALMONELLA TYPHIMURIUM, Strain/Indicator: TA100, Metabolic Activation: NONE, Method: STANDARD PLATE
[6] = Test System: AMES SALMONELLA TYPHIMURIUM, Strain/Indicator: TA98, Metabolic Activation: NONE, Method: STANDARD PLATE
[7] = Test System: AMES SALMONELLA TYPHIMURIUM, Strain/Indicator: TA98, Metabolic Activation: RAT, LIVER, S-9, AROCLOR 1254, Method: STANDARD PLATE
[8] = Test System: AMES SALMONELLA TYPHIMURIUM, Strain/Indicator: TA100, Metabolic Activation: RAT, LIVER, S-9, AROCLOR 1254, Method: STANDARD PLATE

SMILES: C=C(CC)C(=O)c1ccc(OCC(=O)O)c(Cl)c1Cl
- mutagenic call (Test System: AMES SALMONELLA TYPHIMURIUM, Strain/Indicator: TA97, Metabolic Activation: HAMSTER, LIVER, S-9, AROCLOR 1254 (10 OR 30%), Method: PREINCUBATION): inactive; negative
- mutagenic call [1]: inactive; negative
- mutagenic call (Test System: AMES SALMONELLA TYPHIMURIUM, Strain/Indicator: TA97, Metabolic Activation: RAT, LIVER, S-9, AROCLOR 1254 (10 OR 30%), Method: PREINCUBATION): inactive; negative
- mutagenic call (Test System: AMES SALMONELLA TYPHIMURIUM, Strain/Indicator: TA98, Metabolic Activation: HAMSTER, LIVER, S-9, AROCLOR 1254 (10 OR 30%), Method: PREINCUBATION): inactive; negative
- mutagenic call [2]: inactive; negative
- mutagenic call (Test System: AMES SALMONELLA TYPHIMURIUM, Strain/Indicator: TA98, Metabolic Activation: RAT, LIVER, S-9, AROCLOR 1254 (10 OR 30%), Method: PREINCUBATION): inactive; negative
- mutagenic call (Test System: AMES SALMONELLA TYPHIMURIUM, Strain/Indicator: TA100, Metabolic Activation: HAMSTER, LIVER, S-9, AROCLOR 1254 (10 OR 30%), Method: PREINCUBATION): inactive; negative
- mutagenic call [3]: inactive; negative
- mutagenic call (Test System: AMES SALMONELLA TYPHIMURIUM, Strain/Indicator: TA100, Metabolic Activation: RAT, LIVER, S-9, AROCLOR 1254 (10 OR 30%), Method: PREINCUBATION): inactive; negative
- mutagenic call (Test System: AMES SALMONELLA TYPHIMURIUM, Strain/Indicator: TA1535, Metabolic Activation: HAMSTER, LIVER, S-9, AROCLOR 1254 (10 OR 30%), Method: PREINCUBATION): inactive; negative
- mutagenic call [4]: inactive; negative
- mutagenic call (Test System: AMES SALMONELLA TYPHIMURIUM, Strain/Indicator: TA1535, Metabolic Activation: RAT, LIVER, S-9, AROCLOR 1254 (10 OR 30%), Method: PREINCUBATION): inactive; negative

SMILES: O=O
- mutagenic call (Test System: AMES SALMONELLA TYPHIMURIUM, Strain/Indicator: TA92, Metabolic Activation: NONE, Method: PREINCUBATION): inactive; negative
- mutagenic call [1]: inactive; negative
- mutagenic call [3]: inactive; negative
- mutagenic call (Test System: AMES SALMONELLA TYPHIMURIUM, Strain/Indicator: TA102, Metabolic Activation: NONE, Method: PREINCUBATION): active; positive
- mutagenic call (Test System: AMES SALMONELLA TYPHIMURIUM, Strain/Indicator: TA104, Metabolic Activation: NONE, Method: PREINCUBATION): active; positive
- mutagenic call [4]: inactive; negative
- mutagenic call (Test System: AMES SALMONELLA TYPHIMURIUM, Strain/Indicator: TA1537, Metabolic Activation: NONE, Method: PREINCUBATION): inactive; negative
- mutagenic call (Test System: CHINESE HAMSTER V-79, Strain/Indicator: V-79/8-AZAGUANINE, Metabolic Activation: NONE, Method: STANDARD PLATE): active; positive
- mutagenic call (Test System: CHINESE HAMSTER V-79 CELLS, Strain/Indicator: V-79-UL (HPRT)/6-THIOGUANINE, Metabolic Activation: NONE, Method: SUSPENSION/PLATE): active; positive
- mutagenic call (Test System: MOUSE LYMPHOMA, Strain/Indicator: L5178Y (TK+/-), Metabolic Activation: NONE, Method: SUSPENSION/PLATE): active; positive

SMILES: Clc1ccc(C(Cl)(Cl)Cl)cc1Cl
- mutagenic call (Test System: AMES SALMONELLA TYPHIMURIUM, Strain/Indicator: TA98, Metabolic Activation: HAMSTER, LIVER, S-9, AROCLOR 1254 (30%), Method: PREINCUBATION): active; positive
- mutagenic call [2]: inactive; negative
- mutagenic call (Test System: AMES SALMONELLA TYPHIMURIUM, Strain/Indicator: TA98, Metabolic Activation: RAT, LIVER, S-9, AROCLOR 1254 (30%), Method: PREINCUBATION): active; positive
- mutagenic call (Test System: AMES SALMONELLA TYPHIMURIUM, Strain/Indicator: TA100, Metabolic Activation: HAMSTER, LIVER, S-9, AROCLOR 1254 (30%), Method: PREINCUBATION): active; positive
- mutagenic call [3]: inactive; negative
- mutagenic call (Test System: AMES SALMONELLA TYPHIMURIUM, Strain/Indicator: TA100, Metabolic Activation: RAT, LIVER, S-9, AROCLOR 1254 (30%), Method: PREINCUBATION): active; positive

SMILES: O=[N+]([O-])c1cccc(CO)c1
- mutagenic call [2]: inactive; negative
- mutagenic call [3]: inactive; negative
- mutagenic call (Test System: AMES SALMONELLA TYPHIMURIUM, Strain/Indicator: TA100, Metabolic Activation: RAT, LIVER, S-9, AROCLOR 1254, Method: PREINCUBATION): inactive; negative

SMILES: Cc1ccccc1C1=C(C(=O)O)O1
- mutagenic call [5]: inactive; negative

SMILES: OCc1c2ccccc2cc2ccccc12
- mutagenic call (End Point: In vitro chromosomal aberrations, Test System: Chinese hamster lung (CHL/IU) cells, Metabolic Activation: Rat, Liver, S9, Phenobarbital and 5,6-benzoflavone): active; positive (structural changes) (weak response). precipitation in the culture medi
- mutagenic call (Test System: AMES SALMONELLA TYPHIMURIUM, Strain/Indicator: TA98, Metabolic Activation: HUMAN, LIVER, CYTOSOL, PAPS, Method: PREINCUBATION): active; positive
- mutagenic call (Test System: Ames Salmonella typhimurium, Strain/Indicator: TA98, Metabolic Activation: None, Method: Preincubation): inactive; negative
- mutagenic call (Test System: Ames Salmonella typhimurium, Strain/Indicator: TA98, Metabolic Activation: Rat, Liver, S9, Sodium phenobarbital and 5,6-benzoflavone (10%), Method: Preincubation): inactive; negative
- mutagenic call (Test System: Ames Salmonella typhimurium, Strain/Indicator: TA98, Metabolic Activation: Rat, Liver, S9, Sodium phenobarbital and 5,6-benzoflavone (30%), Method: Preincubation): inactive; negative
- mutagenic call (Test System: Ames Salmonella typhimurium, Strain/Indicator: TA100, Metabolic Activation: None, Method: Preincubation): inactive; negative
- mutagenic call (Test System: Ames Salmonella typhimurium, Strain/Indicator: TA100, Metabolic Activation: Rat, Liver, S9, Sodium phenobarbital and 5,6-benzoflavone (10%), Method: Preincubation): inactive; negative
- mutagenic call (Test System: Ames Salmonella typhimurium, Strain/Indicator: TA100, Metabolic Activation: Rat, Liver, S9, Sodium phenobarbital and 5,6-benzoflavone (30%), Method: Preincubation): active; positive
- mutagenic call (Test System: Ames Salmonella typhimurium, Strain/Indicator: TA1535, Metabolic Activation: None, Method: Preincubation): inactive; negative
- mutagenic call (Test System: Ames Salmonella typhimurium, Strain/Indicator: TA1535, Metabolic Activation: Rat, Liver, S9, Sodium phenobarbital and 5,6-benzoflavone (10%), Method: Preincubation): inactive; negative
- mutagenic call (Test System: Ames Salmonella typhimurium, Strain/Indicator: TA1535, Metabolic Activation: Rat, Liver, S9, Sodium phenobarbital and 5,6-benzoflavone (30%), Method: Preincubation): inactive; negative
- mutagenic call (Test System: Ames Salmonella typhimurium, Strain/Indicator: TA1537, Metabolic Activation: None, Method: Preincubation): inactive; negative
- mutagenic call (Test System: Ames Salmonella typhimurium, Strain/Indicator: TA1537, Metabolic Activation: Rat, Liver, S9, Sodium phenobarbital and 5,6-benzoflavone (10%), Method: Preincubation): active; positive (weak)
- mutagenic call (Test System: Ames Salmonella typhimurium, Strain/Indicator: TA1537, Metabolic Activation: Rat, Liver, S9, Sodium phenobarbital and 5,6-benzoflavone (30%), Method: Preincubation): inactive; negative
- mutagenic call (Test System: E. coli, Strain/Indicator: WP2uvrA/pKM101, Metabolic Activation: Rat, Liver, S9, Sodium phenobarbital and 5,6-benzoflavone (30%), Method: Preincubation): inactive; negative

SMILES: O=[N+]([O-])c1ccc2ccc3c4c(cc5ccc1c2c53)CCC=C4
- mutagenic call (Test System: AMES SALMONELLA TYPHIMURIUM, Strain/Indicator: TA98(1,8-DNP6), Metabolic Activation: NONE, Method: STANDARD PLATE): active; positive
- mutagenic call (Test System: AMES SALMONELLA TYPHIMURIUM, Strain/Indicator: TA98(1,8-DNP6), Metabolic Activation: RAT, LIVER, S-9, AROCLOR 1254, Method: STANDARD PLATE): active; positive
- mutagenic call (Test System: AMES SALMONELLA TYPHIMURIUM, Strain/Indicator: TA98(NR), Metabolic Activation: NONE, Method: STANDARD PLATE): active; positive
- mutagenic call (Test System: AMES SALMONELLA TYPHIMURIUM, Strain/Indicator: TA98(NR), Metabolic Activation: RAT, LIVER, S-9, AROCLOR 1254, Method: STANDARD PLATE): active; positive
- mutagenic call [6]: active; positive
- mutagenic call [7]: active; positive
- mutagenic call [5]: inactive; negative
- mutagenic call [8]: active; positive

SMILES: O=C(c1ccc(F)cc1)[C@@H]1O[C@@H]1c1ccccc1
- mutagenic call [6]: inactive; negative
- mutagenic call [7]: inactive; negative
- mutagenic call [5]: active; positive
- mutagenic call [8]: inactive; negative

SMILES: CS(C)=O.[Cl-].[Cl-].[Pt+2].c1ccncc1
- mutagenic call (Test System: AMES SALMONELLA TYPHIMURIUM, Strain/Indicator: TA92, Metabolic Activation: NONE, Method: STANDARD PLATE): inactive; negative
- mutagenic call [6]: inactive; negative
- mutagenic call [5]: inactive; negative
- mutagenic call (Test System: AMES SALMONELLA TYPHIMURIUM, Strain/Indicator: TA2410, Metabolic Activation: NONE, Method: STANDARD PLATE): inactive; negative
